Activity change, negative = growth inhibition and AC50 data for 24 molecules are collected here from PubChem BioAssay AID602184 (Broad Institute, 2012).

Molecules are shown by their SMILES. The source made the active and inactive calls.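 Rule for the calls: active = compounds whose fitted half-effect growth-inhibition concentration is no more than twice their top tested dose; inconclusive = flat curve showing moderate inhibition, or an unreliable curve fit; inactive = the rest.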

Tested on in one assay: not listed separately
As to the kind of experiment: yeast respiratory growth inhibition – glycerol medium, OD600, dry powder, dose response (AID 602184). The settings on record: S. cerevisiae growth in glycerol medium, OD600, 48 h; at 19.5 µM (top of the series).
`Cc1ccc(C(=O)Nc2nnc(-c3ccccc3)o2)cc1C`: the activity change, negative = growth inhibition is -3.03% (inactive).
For `Oc1c(C(c2ccc(Cl)cc2)N2CCCC2)ccc2cccnc12` (centres undefined), the activity change, negative = growth inhibition was -8.5% (inactive).
On the same count and under the same terms, next, `O=C(Nc1nc(-c2ccc3c(c2)CCCC3)cs1)c1ccccc1`: -4.76% (inactive); `O=C(Nc1nc(-c2ccccc2)cs1)c1ccc(Br)s1`: -11.7% (inactive).
For `COc1ccc(-c2nnc(NC(=O)c3ccc(S(=O)(=O)N4CCCc5ccccc54)cc3)o2)cc1`, the activity change, negative = growth inhibition was -22.8% (inactive).
On the same count and under the same terms, under `NC(=O)c1cccc(C(=O)Nc2nc(-c3ccc4c(c3)CCCC4)cs2)c1` stands -13.9% (inactive).
Still for that read-out and setting: under `Cc1cc(C)n(-c2nc3ccccc3c(=O)n2OCC#N)n1` stands -14.8% (inactive).

Still in this assay, the particulars now being: S. cerevisiae growth in glycerol medium, OD600, 48 h; at 23.5 µM (top of the series).
As to `Oc1c(CN2CCN(c3ccccc3)CC2)cc(Cl)c2cccnc12`, the activity change, negative = growth inhibition is -52.9% (inactive).

The subject of another assay is S. cerevisiae growth in glycerol medium, OD600, 48 h. Described as above.
Settings: not given
With `O=C(Nc1nnc(-c2ccc3c(c2)CCCC3)o1)c1ccccc1`, the AC50 (commonly the concentration giving half of the maximal activity seen) was 16.1 µM.
For the molecule `C/C(=N\NC(=O)c1cc2ccccc2cc1O)c1ccccn1`, the AC50 was 14.4 µM.
Same read-out and setting: under `CCOC(=O)N1C(=O)C2(CCCCC2)N(c2ccc(C)cc2)C1=S` stands less than 0.08 µM.
Consider `O=C(Nc1nc(-c2ccccn2)cs1)c1ccc(Cl)s1`, for which the AC50 was 1.55 µM.
On the same count and under the same terms, under `O=C(NNC(=S)Nc1ccc(Cl)c(Cl)c1)c1ccccn1` stands 12.7 µM; under `Oc1c(C(c2ccccc2Cl)N2CCCCC2)ccc2cccnc12` (centres undefined), 21.8 µM; under `O=C(Nc1nc(-c2ccccn2)cs1)c1ccccc1`, 18.9 µM.
On the same count and under the same terms, under `O=C(Nc1nnc(-c2ccc3c(c2)CCCC3)o1)c1ccc(Cl)cc1Cl` stands 14.8 µM; under `C=CCNC(=S)N/N=C(\C)c1ccccn1`, 8.88 µM; under `O=C(Oc1c(Cl)cc(Cl)c2cccnc12)c1ccco1`, 0.64 µM.
Still for that read-out and setting: next, `Cc1ccc(-c2nc3c(Cl)cc(Cl)cc3c(=O)n2O)cc1`: 3.71 µM; `CN1CCN(C(c2ccc(C(F)(F)F)cc2)c2ccc3cccnc3c2O)CC1` (centres undefined): 3.1 µM; `Cc1ccc(C(=O)Nc2nc(-c3ccccn3)cs2)cc1`: 6.34 µM.
For the molecule `CCCC(=O)NC(c1cccs1)c1cc(Cl)c2cccnc2c1O` (centres undefined), the half-maximal activity concentration (AC50) is 10.6 µM.
Same read-out and setting: next, `O=C(Nc1nc(-c2ccccn2)cs1)c1ccc(Br)s1`: 1.01 µM; `Oc1c(CN2CCc3ccccc3C2)cc(Cl)c2cccnc12`: 8.17 µM.
